Converted amounts (≈) assume the structure as drawn. “And” between values parts separate entries of the source, which are not always exact repeats. Equal entries are not always repeated.
Tests used:
Test in all cases: ≥ marks a high value that may be exact or a test limit, other limits are often not marked, values filed in µg/mL are converted to µM
Acinetobacter baumannii = test system: Acinetobacter baumannii
[1] = test system: Escherichia coli ATCC 25922
Escherichia coli = test system: Escherichia coli
[2] = test system: Mycobacterium tuberculosis CAS3
[3] = test system: Mycobacterium tuberculosis FYX
[4] = test system: Mycobacterium tuberculosis H37Rv
[5] = test system: Mycobacterium tuberculosis WXY
[6] = test system: Pseudomonas aeruginosa H103
[7] = test system: Pseudomonas aeruginosa PAO1
Pseudomonas aeruginosa = test system: Pseudomonas aeruginosa
[8] = test system: Salmonella enterica serovar Typhimurium
[9] = test system: Staphylococcus aureus ATCC 25923
Staphylococcus aureus = test system: Staphylococcus aureus
[10] = test system: Acinetobacter baumannii ATCC 19606
[11] = test system: Bacillus anthracis Sterne 34F2
[12] = test system: Haemophilus influenzae ATCC 49247
[13] = test system: Klebsiella pneumoniae NCTC 9633
[14] = test system: Mycobacterium tuberculosis H37Ra
[15] = test system: Pseudomonas aeruginosa 253
[16] = test system: Pseudomonas aeruginosa 910
[17] = test system: Pseudomonas aeruginosa 919
[18] = test system: Staphylococcus aureus NRS 72
[19] = test system: Staphylococcus aureus USA 300
Bacillus cereus AS1.126 = test system: Bacillus cereus AS1.126
[20] = test system: Candida albicans CMCC 98001
[21] = test system: Enterobacter cloacae CGMCC 1.58
[22] = test system: Enterococcus faecalis CGMCC 1.595
[23] = test system: Enterococcus faecium CGMCC 1.2334
Escherichia coli AS1.349 = test system: Escherichia coli AS1.349
[24] = test system: Fusobacterium nucleatum CGMCC 1.2526
[25] = test system: Klebsiella aerogenes CGMCC 1.876
[26] = test system: Klebsiella pneumoniae subsp. pneumoniae CGMCC 1.176
[27] = test system: Lactobacillus acidophilus CGMCC 1.1854
[28] = test system: Lactococcus lactis AS1.1690
[29] = test system: Pseudomonas aeruginosa CGMCC 1.860
[30] = test system: Staphylococcus aureus AS1.72
[31] = test system: Streptococcus mutans CGMCC 1.2500
[32] = test system: Streptococcus salivarius CGMCC 1.2498
[33] = test system: Streptococcus sanguinis CGMCC 1.2497
[34] = test system: Acinetobacter baumannii AB1
[35] = test system: Acinetobacter baumannii AB2
[36] = test system: Acinetobacter baumannii AB3
[37] = test system: Klebsiella pneumoniae KP1
[38] = test system: Klebsiella pneumoniae KP2
[39] = test system: Klebsiella pneumoniae KP3
[40] = test system: Klebsiella pneumoniae KP4
[41] = test system: Pseudomonas aeruginosa TRPA 108
[42] = test system: Pseudomonas aeruginosa TRPA 111
[43] = test system: Staphylococcus aureus 4003
[44] = test system: Staphylococcus aureus ATCC 43300
[45] = test system: Staphylococcus aureus ATCC 6538
[46] = test system: Staphylococcus aureus ATCC BAA-44
[47] = test system: Staphylococcus aureus NRS 1
[48] = test system: Staphylococcus aureus NRS 846
[49] = test system: Staphylococcus aureus RN4220
[50] = test system: Staphylococcus aureus USA 100
[51] = test system: Staphylococcus aureus USA 400
[52] = test system: Staphylococcus aureus VRSA4
[53] = test system: Staphylococcus epidermidis NRS 101

CC[C@H](C)[C@H](NC(=O)[C@H](CCCN=C(N)N)NC(=O)[C@H](CC(C)C)NC(=O)[C@H](CCC(N)=O)NC(=O)[C@@H](N)C(C)C)C(=O)N[C@@H](CCCN=C(N)N)C(=O)N[C@H](C(=O)N[C@@H](C)C(=O)N[C@H](C(=O)N[C@H](C(=O)N[C@@H](CCCN=C(N)N)C(=O)N[C@@H](C)C(N)=O)[C@@H](C)CC)C(C)C)C(C)C [VQLRIRVAVIRA]
MIC (Acinetobacter baumannii): ≥ 45.9 µM | MIC [1]: 23 µM (≈ 32 µg/mL) | MIC (Escherichia coli): 64.9 µM (≈ 90.4 µg/mL) | MIC [2]: ≥ 53.8 µM | MIC [3]: 26.9 µM (≈ 37.5 µg/mL) | MIC [4]: 21 µM and 26.9 µM | MIC [5]: 13.5 µM (≈ 18.7 µg/mL) | MIC [6]: ≥ 53.8 µM | MIC [7]: 91.8 µM (≈ 128 µg/mL) | MIC (Pseudomonas aeruginosa): 64.9 µM (≈ 90.4 µg/mL) | MIC [8]: 23 µM (≈ 32 µg/mL) | MIC [9]: 27.3 µM and 45.9 µM | MIC (Staphylococcus aureus): 64.9 µM (≈ 90.4 µg/mL)

CC(C)[C@H](NC(=O)[C@H](Cc1c[nH]c2ccccc12)NC(=O)[C@H](CCCN=C(N)N)NC(=O)[C@H](Cc1c[nH]c2ccccc12)NC(=O)[C@H](Cc1c[nH]c2ccccc12)NC(=O)[C@H](CCCN=C(N)N)NC(=O)[C@@H](N)CCCN=C(N)N)C(=O)N[C@H](C(=O)N[C@@H](Cc1c[nH]c2ccccc12)C(N)=O)C(C)C [RRWWRWVVW]
MIC [10]: 10 µM (≈ 14.3 µg/mL) | MIC [11]: 20 µM (≈ 28.6 µg/mL) | MIC [12]: ≥ 40 µM | MIC [13]: 2.5 µM (≈ 3.57 µg/mL) | MIC [14]: 20 µM (≈ 28.6 µg/mL) | MIC [15]: 8 µM (≈ 11.4 µg/mL) | MIC [16]: 8 µM (≈ 11.4 µg/mL) | MIC [17]: 2 µM (≈ 2.86 µg/mL) | MIC [18]: 20 µM (≈ 28.6 µg/mL) | MIC [19]: 20 µM (≈ 28.6 µg/mL)

CC[C@H](C)[C@H](N)C(=O)N[C@@H](CCCCN)C(=O)N[C@@H](CCCCN)C(=O)N[C@H](C(=O)N[C@H](C(=O)N[C@@H](CO)C(=O)N[C@@H](CCCCN)C(=O)N[C@H](C(=O)N[C@@H](CCCCN)C(=O)N[C@@H](CCCCN)C(=O)N[C@H](C(=O)N[C@@H](CC(C)C)C(=O)N[C@@H](CCCCN)C(N)=O)C(C)C)[C@@H](C)CC)C(C)C)[C@@H](C)CC [IKKIVSKIKKVLK]
MIC (Bacillus cereus AS1.126): 3.12 µM (≈ 4.76 µg/mL) | MIC [20]: 6.25 µM (≈ 9.53 µg/mL) | MIC [21]: 7.81 µM (≈ 11.9 µg/mL) | MIC [22]: 7.81 µM (≈ 11.9 µg/mL) | MIC [23]: 7.81 µM (≈ 11.9 µg/mL) | MIC (Escherichia coli AS1.349): 6.25 µM (≈ 9.53 µg/mL) | MIC [24]: 6.25 µM (≈ 9.53 µg/mL) | MIC [25]: 7.81 µM (≈ 11.9 µg/mL) | MIC [26]: 6.25 µM (≈ 9.53 µg/mL) | MIC [27]: 6.25 µM (≈ 9.53 µg/mL) | MIC [28]: 3.12 µM (≈ 4.76 µg/mL) | MIC [29]: 6.25 µM (≈ 9.53 µg/mL) | MIC [30]: 6.25 µM (≈ 9.53 µg/mL) | MIC [31]: 6.25 µM (≈ 9.53 µg/mL) | MIC [32]: 6.25 µM (≈ 9.53 µg/mL) | MIC [33]: 6.25 µM (≈ 9.53 µg/mL)

NC(N)=NCCC[C@H](NC(=O)[C@H](CCCN=C(N)N)NC(=O)[C@H](Cc1c[nH]c2ccccc12)NC(=O)[C@H](Cc1c[nH]c2ccccc12)NC(=O)[C@H](CCCN=C(N)N)NC(=O)[C@H](CCCN=C(N)N)NC(=O)[C@H](Cc1c[nH]c2ccccc12)NC(=O)[C@H](Cc1c[nH]c2ccccc12)NC(=O)[C@H](CCCN=C(N)N)NC(=O)[C@H](Cc1c[nH]c2ccccc12)NC(=O)[C@H](Cc1c[nH]c2ccccc12)NC(=O)[C@@H](N)CCCN=C(N)N)C(=O)O [RWWRWWRRWWRR]
MIC [34]: 2.41 µM (≈ 5 µg/mL) | MIC [35]: 1.45 µM (≈ 3 µg/mL) | MIC [36]: 5.31 µM (≈ 11 µg/mL) | MIC (Acinetobacter baumannii): 2.7 µM (≈ 5.6 µg/mL) | MIC [37]: 13 µM (≈ 27 µg/mL) | MIC [38]: 15.4 µM (≈ 32 µg/mL) | MIC [39]: 15.4 µM (≈ 32 µg/mL) | MIC [40]: 15.4 µM (≈ 32 µg/mL) | MIC [41]: 1.93 µM (≈ 4 µg/mL) | MIC [42]: 1.45 µM (≈ 3 µg/mL) | MIC (Pseudomonas aeruginosa): 3.3 µM (≈ 6.84 µg/mL) | MIC [43]: 1.45 µM (≈ 3 µg/mL) | MIC [44]: 2 µM (≈ 4.14 µg/mL) | MIC [45]: 4 µM (≈ 8.29 µg/mL) | MIC [46]: 4 µM (≈ 8.29 µg/mL) | MIC [47]: 1 µM (≈ 2.07 µg/mL) | MIC [48]: 16 µM (≈ 33.2 µg/mL) | MIC [49]: 2 µM (≈ 4.14 µg/mL) | MIC [50]: 3.38 µM (≈ 7 µg/mL) | MIC [51]: 2 µM (≈ 4.14 µg/mL) | MIC [52]: 5.66 µM (≈ 11.7 µg/mL) | MIC [53]: 4 µM (≈ 8.29 µg/mL)

Reference: DBAASP
